Measured values: patent US20070219186A1, “Pyrazolo[1,5-A]pyrimidine derivatives and methods of use thereof” (priority 2006, published 2007)
pIC50: −log10 of the molar value. Like-named read-outs stand apart in the source and are kept apart here.

Assays:
[1] = biological target: T1, human B-Raf (Homo sapiens, UniProt P15056); test: B-Raf Kinase to MEK1 ELISA; assay type: biochemical; details: for inhibition at 10 µM: read-out: % Inhib./10 uM; for % Inhib./10 uM: single point assay
T1 construct: Flag; GST; made in house; host or cells: Sf9 insect cells (B-Raf); E. coli (MEK1-GST)
Outline: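 Read-out is a DELFIA europium signal from phospho-MEK1 (Ser217/221) antibody after capture of GST-MEK1 (50 nM final) on anti-GST plates. Phosphorylation comes from Sf9-expressed Flag/GST human B-Raf (~20 ng) with ATP/MgCl2, 60 min RT, pH 7.2 MOPS.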

[2] = median, cpd concentrations from 10 μM to 30 nM in half log dilutions, read-out: Median IC50

T1 sequence (P15056 whole entry): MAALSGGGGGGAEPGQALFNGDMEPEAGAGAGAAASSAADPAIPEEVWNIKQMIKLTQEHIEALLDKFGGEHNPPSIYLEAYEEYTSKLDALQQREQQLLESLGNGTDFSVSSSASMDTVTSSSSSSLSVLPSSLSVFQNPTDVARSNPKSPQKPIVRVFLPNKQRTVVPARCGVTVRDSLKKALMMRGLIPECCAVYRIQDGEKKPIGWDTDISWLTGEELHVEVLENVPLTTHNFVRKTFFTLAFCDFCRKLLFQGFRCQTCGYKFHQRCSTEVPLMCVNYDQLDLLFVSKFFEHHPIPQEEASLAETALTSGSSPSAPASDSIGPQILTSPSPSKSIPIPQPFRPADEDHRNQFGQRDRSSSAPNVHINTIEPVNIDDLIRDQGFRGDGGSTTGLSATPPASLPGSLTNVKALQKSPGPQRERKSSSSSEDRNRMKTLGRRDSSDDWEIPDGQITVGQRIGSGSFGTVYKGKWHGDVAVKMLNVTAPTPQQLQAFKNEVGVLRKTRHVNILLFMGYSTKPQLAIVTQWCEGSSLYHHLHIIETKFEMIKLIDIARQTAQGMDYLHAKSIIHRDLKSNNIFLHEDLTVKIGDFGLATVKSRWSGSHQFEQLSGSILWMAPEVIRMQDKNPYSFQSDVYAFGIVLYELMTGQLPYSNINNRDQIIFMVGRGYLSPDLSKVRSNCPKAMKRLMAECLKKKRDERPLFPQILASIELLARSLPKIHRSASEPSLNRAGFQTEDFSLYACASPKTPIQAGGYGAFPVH

pIC50 [1, 2] | inhibition at 10 µM [1] [%] | pIC50 [1] | melting point [°C] | % Inhib./10 uM [1] [%] | Compound
5.88 | 63 |  | 183 to 185 |  | CN1CCC(c2cnn3c(-c4cccc(NC(=O)c5cccc(C(F)(F)F)c5)c4)ccnc23)CC1 [Example 309, N-{3-[3-(1-methylpiperidin-4-yl)pyrazolo[1,5-a]pyrimidin-7-yl]phenyl}-3-(trifluoromethyl)benzamide]
< 5.00 | 37 |  |  |  | O=Cc1cc(C=O)cc(-c2cnn3c(-c4cccc(NC(=O)c5cccc(C(F)(F)F)c5)c4)ccnc23)c1 [Example 310, N-{3-[3-(3,5-diformylphenyl)pyrazolo[1,5-a]pyrimidin-7-yl]phenyl}-3-(trifluoromethyl)benzamide]
 | 80 | 4.97 |  |  | O=C(Nc1cccc(-c2ccnc3c(-c4ccc(F)nc4)cnn23)c1)c1cccc(C(F)(F)F)c1 [Example 311, N-{3-[3-(6-fluoropyridin-3-yl)pyrazolo[1,5-a]pyrimidin-7-yl]phenyl}-3-(trifluoromethyl)benzamide]
 | 77 | 6.24 |  |  | COc1ccc(-c2cnn3c(-c4cccc(NC(=O)c5cccc(C(F)(F)F)c5)c4)ccnc23)cn1 [Example 312, N-{3-[3-(6-methoxypyridin-3-yl)pyrazolo[1,5-a]pyrimidin-7-yl]phenyl}-3-(trifluoromethyl)benzamide]
< 5.00 | 78 |  |  |  | O=Cc1ccc(-c2cnn3c(-c4cccc(NC(=O)c5cccc(C(F)(F)F)c5)c4)ccnc23)o1 [Example 313, N-{3-[3-(5-formyl-2-furyl)pyrazolo[1,5-a]pyrimidin-7-yl]phenyl}-3-(trifluoromethyl)benzamide]
6.29 | 82 |  |  |  | O=C(O)c1cccc(-c2cnn3c(-c4cccc(NC(=O)c5cccc(C(F)(F)F)c5)c4)ccnc23)c1 [Example 314, 3-[7-(3-{[3-(trifluoromethyl)benzoyl]amino}phenyl)pyrazolo[1,5-a]pyrimidin-3-yl]benzoic acid]
 | 102 | 7.69 |  |  | O=C(Nc1cccc(-c2ccnc3c(-c4ccc(CN5CCCC5)cc4)cnn23)c1)c1cccc(C(F)(F)F)c1 [Example 315, N-(3-{3-[4-(pyrrolidin-1-ylmethyl)phenyl]pyrazolo[1,5-a]pyrimidin-7-yl}phenyl)-3-(trifluoromethyl)benzamide]
6.27 | 92 |  |  |  | O=C(Nc1cccc(-c2ccnc3c(-c4ccc(CN5CCCC5)o4)cnn23)c1)c1cccc(C(F)(F)F)c1 [Example 316, N-(3-{3-[5-(pyrrolidin-1-ylmethyl)-2-furyl]pyrazolo[1,5-a]pyrimidin-7-yl}phenyl)-3-(trifluoromethyl)benzamide]
7.37 | 100 |  |  |  | O=C(Nc1ccc(F)c(-c2ccnc3cc(-c4ccncc4)nn23)c1)c1cccc(C(F)(F)F)c1 [Example 317, N-[4-fluoro-3-(2-pyridin-4-ylpyrazolo[1,5-a]pyrimidin-7-yl)phenyl]-3-(trifluoromethyl)benzamide]
5.45 | 59 |  |  |  | O=C(Nc1ccc(F)c(-c2ccnc3ccnn23)c1)c1cccc(C(F)(F)F)c1 [Example 318, N-(4-fluoro-3-pyrazolo[1,5-a]pyrimidin-7-ylphenyl)-3-(trifluoromethyl)benzamide]

The next lines start with the compound.

Compound | pIC50 [1, 2] | inhibition at 10 µM [1] [%] | pIC50 [1] | melting point [°C] | % Inhib./10 uM [1] [%]
O=C(Nc1cccc(-c2ccnc3c(-c4cccc(C(F)(F)F)c4)cnn23)c1)c1cccc(C(F)(F)F)c1 [Example 291, 3-(trifluoromethyl)-N-(3-{3-[3-(trifluoromethyl)phenyl]pyrazolo[1,5-a]pyrimidin-7-yl}phenyl)benzamide] | < 5.00 | 33 |  |  | 
O=C(Nc1cccc(-c2ccnc3c(-c4ccc(C(F)(F)F)cc4)cnn23)c1)c1cccc(C(F)(F)F)c1 [Example 292, 3-(trifluoromethyl)-N-(3-{3-[4-(trifluoromethyl)phenyl]pyrazolo[1,5-a]pyrimidin-7-yl}phenyl)benzamide] | < 5.00 | 26 |  |  | 
N#Cc1ccccc1-c1cnn2c(-c3cccc(NC(=O)c4cccc(C(F)(F)F)c4)c3)ccnc12 [Example 293, N-{3-[3-(2-cyanophenyl)pyrazolo[1,5-a]pyrimidin-7-yl]phenyl}-3-(trifluoromethyl)benzamide] |  | 55 | 5.13 |  | 
N#Cc1cccc(-c2cnn3c(-c4cccc(NC(=O)c5cccc(C(F)(F)F)c5)c4)ccnc23)c1 [Example 294, N-{3-[3-(3-cyanophenyl)pyrazolo[1,5-a]pyrimidin-7-yl]phenyl}-3-(trifluoromethyl)benzamide] | < 5.00 | 42 |  |  | 
N#Cc1ccc(-c2cnn3c(-c4cccc(NC(=O)c5cccc(C(F)(F)F)c5)c4)ccnc23)cc1 [Example 295, N-{3-[3-(4-cyanophenyl)pyrazolo[1,5-a]pyrimidin-7-yl]phenyl}-3-(trifluoromethyl)benzamide] | < 5.00 | 41 |  |  | 
COC(=O)c1cccc(-c2cnn3c(-c4cccc(NC(=O)c5cccc(C(F)(F)F)c5)c4)ccnc23)c1 [Example 296, methyl 3-[7-(3-{[3-(trifluoromethyl)benzoyl]amino}phenyl)pyrazolo[1,5-a]pyrimidin-3-yl]benzoate] |  | 53 | 5.75 |  | 
COC(=O)c1ccc(-c2cnn3c(-c4cccc(NC(=O)c5cccc(C(F)(F)F)c5)c4)ccnc23)cc1 [Example 297, methyl 4-[7-(3-{[3-(trifluoromethyl)benzoyl]amino}phenyl)pyrazolo[1,5-a]pyrimidin-3-yl]benzoate] |  | 75 | 5.66 |  | 
CC(=O)c1ccccc1-c1cnn2c(-c3cccc(NC(=O)c4cccc(C(F)(F)F)c4)c3)ccnc12 [Example 298, N-{3-[3-(2-acetylphenyl)pyrazolo[1,5-a]pyrimidin-7-yl]phenyl}-3-(trifluoromethyl)benzamide] |  | 69 | 6.58 |  | 
CC(=O)c1cccc(-c2cnn3c(-c4cccc(NC(=O)c5cccc(C(F)(F)F)c5)c4)ccnc23)c1 [Example 299, N-{3-[3-(3-acetylphenyl)pyrazolo[1,5-a]pyrimidin-7-yl]phenyl}-3-(trifluoromethyl)benzamide] |  | 63 | 6.21 |  | 
CC(=O)c1ccc(-c2cnn3c(-c4cccc(NC(=O)c5cccc(C(F)(F)F)c5)c4)ccnc23)cc1 [Example 300, N-{3-[3-(4-acetylphenyl)pyrazolo[1,5-a]pyrimidin-7-yl]phenyl}-3-(trifluoromethyl)benzamide] |  | 71 | 5.35 |  | 
O=C(Nc1cccc(-c2ccnc3c(-c4ccnc(Cl)c4)cnn23)c1)c1cccc(C(F)(F)F)c1 [Example 301, N-{3-[3-(2-chloropyridin-4-yl)pyrazolo[1,5-a]pyrimidin-7-yl]phenyl}-3-(trifluoromethyl)benzamide] |  | 75 | 5.76 |  | 
Cc1cc(-c2cccc(NC(=O)c3cccc(C(F)(F)F)c3)c2)n2nc(-c3ccncc3)cc2n1 [Example 302, N-[3-(5-methyl-2-pyridin-4-ylpyrazolo[1,5-a]pyrimidin-7-yl)phenyl]-3-(trifluoromethyl)benzamide] | 6.10 | 72 |  |  | 
CC(O)c1ccccc1-c1cnn2c(-c3cccc(NC(=O)c4cccc(C(F)(F)F)c4)c3)ccnc12 (stereo not drawn) [Example 303, N-(3-{3-[2-(1-hydroxyethyl)phenyl]pyrazolo[1,5-a]pyrimidin-7-yl}phenyl)-3-(trifluoromethyl)benzamide] | 6.54 | 80 |  |  | 
CC(O)c1cccc(-c2cnn3c(-c4cccc(NC(=O)c5cccc(C(F)(F)F)c5)c4)ccnc23)c1 (stereo not drawn) [Example 304, N-(3-{3-[3-(1-hydroxyethyl)phenyl]pyrazolo[1,5-a]pyrimidin-7-yl}phenyl)-3-(trifluoromethyl)benzamide] | 6.71 | 80 |  |  | 
Cc1ccccc1-c1cnn2c(-c3cccc(NC(=O)c4cccc(C(F)(F)F)c4)c3)ccnc12 [Example 305, N-{3-[3-(2-methylphenyl)pyrazolo[1,5-a]pyrimidin-7-yl]phenyl}-3-(trifluoromethyl)benzamide] |  | 54 | 6.05 |  | 
CN1CC=C(c2cnn3c(-c4cccc(NC(=O)c5cccc(C(F)(F)F)c5)c4)ccnc23)CC1 [Example 306, N-{3-[3-(1-methyl-1,2,3,6-tetrahydropyridin-4-yl)pyrazolo[1,5-a]pyrimidin-7-yl]phenyl}-3-(trifluoromethyl)benzamide] | 6.07 | 68 |  | 163 to 165 | 
O=C(Nc1cccc(-c2ccnc3c(-c4cnn(CCN5CCCC5)c4)cnn23)c1)c1cccc(C(F)(F)F)c1 [Example 307, N-(3-{3-[1-(2-pyrrolidin-1-ylethyl)-1H-pyrazol-4-yl]pyrazolo[1,5-a]pyrimidin-7-yl}phenyl)-3-(trifluoromethyl)benzamide] |  |  | 6.41 |  | 
Cn1cc(-c2cnn3c(-c4cccc(NC(=O)c5cccc(C(F)(F)F)c5)c4)ccnc23)cn1 [Example 308, N-{3-[3-(1-methyl-1H-pyrazol-4-yl)pyrazolo[1,5-a]pyrimidin-7-yl]phenyl}-3-(trifluoromethyl)benzamide] | 6.55 | 86 |  |  | 
N-{3-[3-(4-methoxyphenyl)pyrazolo[1,5-a]pyrimidin-7-yl]phenyl}-3-(trifluoromethyl)benzamide [Example 159] | < 5.00 |  |  |  | 5
ethyl 7-{3-[(pyridin-3-ylcarbonyl)amino]phenyl}pyrazolo[1,5-a]pyrimidine-3-carboxylate [Example 204] | < 5.00 |  |  |  | 12
ethyl 7-{3-[({[(ethoxycarbonyl)phenyl]amino}carbonyl)amino]phenyl}pyrazolo[1,5-a]pyrimidine-3-carboxylate [Example 15] | < 5.00 |  |  |  | 0
